This note sets out measurements from publication PMC6309732 (ChemMedChem, 2016).

Data set [1] deals with HIV-1 RT-associated RNA dependent DNA polymerase (Human immunodeficiency virus type 1 group M subtype B, UniProt P04585). Kind of data set: biochemical.
The target of data set [2] is T1, HIV-1 RT-associated RNase H (Human immunodeficiency virus type 1 group M subtype B, UniProt P04585). The data set is described as follows: HIV-1 DNA polymerase-independent RNase H activity determination. Type of data set: biochemical.
In data set [3] the target is T1, HIV-1 RT-associated RNase H. Kind of data set: RNase H assay with modified order of addition. Type of data set: biochemical. The following applies: for Fold increase of IC50 versus the regular assay: inhibitor added after duplex substrate vs regular assay.
The subject of the next data set is HIV-2 (ROD strain). Kind of data set: Antiviral assay, HIV-2. To be noted: acutely infected MT-4 cells; at concentrations less than cytotoxic. Type of data set: cell-based.
For another data set, the target named is HIV-1 RT heterodimer (Human immunodeficiency virus type 1 group M subtype B, UniProt P04585). The data set is described as follows: Differential Scanning Fluorimetry. The following applies: 10 μM inhibitor, 300 nM HIV-1 RT; data not shown. Type of data set: binding.
The nature of data set [4]: Cytotoxicity in mock-infected MT-4 cells. The class given is cell-based. The following applies: human.
In the next data set the test system is HIV-1 (IIIB strain). The data set is described as follows: Antiviral assay, HIV-1. To be noted: acutely infected MT-4 cells; at concentrations less than cytotoxic. Type of data set: cell-based.

The structures appear in SMILES notation.

With `O=C(Nc1sc2c(c1C(=O)Nc1ccccn1)CCCCC2)c1ccccc1Br` [Compound 23, 2-(2-Bromobenzamido)-N-(pyridin-2-yl)-5,6,7,8-tetrahydro-4H-cyclohepta[b]thiophene-3-carboxamide], the IC50 in data set [1] was above 50 µM; in data set [2], 4.57 ± 0.01 µM.
In data set [2], `O=C(Nc1sc2c(c1C(=O)Nc1ccccn1)CCCCC2)c1ccccc1[N+](=O)[O-]` [Compound 24, 2-(2-Nitrobenzamido)-N-(pyridin-2-yl)-5,6,7,8-tetrahydro-4H-cyclohepta[b]thiophene-3-carboxamide] registered an IC50 of 53.5 ± 1.7 µM.
Still for that read-out and setting: next, `Nc1ccccc1C(=O)Nc1sc2c(c1C(=O)Nc1ccccn1)CCCCC2` [Compound 26, 2-(2-Aminobenzamido)-N-(pyridin-2-yl)-5,6,7,8-tetrahydro-4H-cyclohepta[b]thiophene-3-carboxamide]: 14.9 ± 4.1 µM; `Nc1ccc(C(=O)Nc2sc3c(c2C(=O)Nc2ccccn2)CCCCC3)cc1` [Compound 27, 2-(4-Aminobenzamido)-N-(pyridin-2-yl)-5,6,7,8-tetrahydro-4H-cyclohepta[b]thiophene-3-carboxamide]: 21.4 ± 4.4 µM.
On the same count and under the same terms, next, `Cc1ccccc1C(=O)Nc1sc2c(c1C(=O)Nc1ccccn1)CCCCC2` [Compound 29, 2-(2-Methylbenzamido)-N-(pyridin-2-yl)-5,6,7,8-tetrahydro-4H-cyclohepta[b]thiophene-3-carboxamide]: 18.3 ± 1.8 µM.
Turning to `COc1ccc(C(=O)Nc2sc3c(c2C(=O)Nc2ccccn2)CCCCC3)c(OC)n1` [Compound 30, 2,6-Dimethoxy-N-(3-(pyridin-2-ylcarbamoyl)-5,6,7,8-tetrahydro-4H-cyclohepta[b]thiophen-2-yl)nicotinamide], half-maximal inhibition in data set [2] (IC50) was put at 21.5 ± 1 µM.
Consider `COc1ccc(C(=O)Nc2sc3c(c2C(=O)Nc2ccccn2)CCCCC3)cc1OC` [Compound 31, 2-(3,4-Dimethoxybenzamido)-N-(pyridin-2-yl)-5,6,7,8-tetrahydro-4H-cyclohepta[b]thiophene-3-carboxamide], for which the IC50 is 20 ± 7 µM in data set [3], above 50 µM in data set [1] and 4.01 ± 1 µM in data set [2]. Besides, in data set [3], the “Fold increase of IC50 versus the regular assay” value was 5 fold. In addition, the “Inhibition of HIV-2 (ROD) replication” value in the data set with HIV-2 (ROD strain) is recorded as “unable to affect viral replication”. Moreover, the “Effect on Tm of the RT heterodimer” value at HIV-1 RT heterodimer is listed as “no decreased Tm”. In data set [4], this molecule registered a CC50 at 5 days of 6.24 µM. In addition, the “Fold decrease in RNase H potency relative to compound 33” value in data set [2] (O-methylated hydroxyl groups vs catechol 33) turned out to be 5 fold. Further, the “Inhibition of HIV-1 (IIIB) replication” value in the data set on HIV-1 (IIIB strain) is “unable to affect viral replication”.
Molecule `COc1ccc(C(=O)Nc2sc3c(c2C(=O)Nc2ccccn2)CCCCC3)c(O)n1` [Compound 32, 2-Hydroxy-6-methoxy-N-(3-(pyridin-2-ylcarbamoyl)-5,6,7,8-tetrahydro-4H-cyclohepta[b]thiophen-2-yl)nicotinamide] yielded an IC50 in data set [2] of 15.1 ± 1.3 µM.
Turning to `O=C(Nc1sc2c(c1C(=O)Nc1ccccn1)CCCCC2)c1ccc(O)c(O)c1` [Compound 33, 2-(3,4-Dihydroxybenzamido)-N-(pyridin-2-yl)-5,6,7,8-tetrahydro-4H-cyclohepta[b]thiophene-3-carboxamide], the results for the IC50 in data set [3] and in data set [1] were 5.3 ± 0.2 µM and 20.9 ± 1.7 µM, respectively. Also, the “Fold increase of IC50 versus the regular assay” value in data set [3] stood at 5 fold. Moreover, the “Inhibition of HIV-2 (ROD) replication” value with HIV-2 (ROD strain) was “unable to affect viral replication”. Besides, the “Effect on Tm of the RT heterodimer” value at HIV-1 RT heterodimer is “no decreased Tm”. Also, the CC50 at 5 days in data set [4] was 30.7 µM. For the same molecule, in the data set with HIV-1 (IIIB strain), the “Inhibition of HIV-1 (IIIB) replication” value was “unable to affect viral replication”.
Take `O=C(Nc1sc2c(c1C(=O)Nc1ccccn1)CCCCC2)c1cccs1` [Compound 34, N-(Pyridin-2-yl)-2-(thiophene-2-carboxamido)-5,6,7,8-tetrahydro-4H-cyclohepta[b]thiophene-3-carboxamide]: the IC50 in data set [1] was above 50 µM; in data set [2], 10.4 ± 1.96 µM.
For the molecule `CC(=O)Nc1sc2c(c1C(=O)Nc1ccccn1)CCCCC2` [Compound 35, 2-Acetamido-N-(pyridin-2-yl)-5,6,7,8-tetrahydro-4H-cyclohepta[b]thiophene-3-carboxamide], the IC50 in data set [2] was above 100 µM.
Regarding `O=C(Cc1ccccc1F)Nc1sc2c(c1C(=O)Nc1ccccn1)CCCCC2` [Compound 36, 2-(2-(2-Fluorophenyl)acetamido)-N-(pyridin-2-yl)-5,6,7,8-tetrahydro-4H-cyclohepta[b]thiophene-3-carboxamide], the IC50 in data set [1] is above 50 µM.
On to `O=C(Nc1sc2c(c1C(=O)Nc1ccccc1F)CCCCC2)c1ccccn1` [Compound 37, N-(3-((2-Fluorophenyl)carbamoyl)-5,6,7,8-tetrahydro-4H-cyclohepta[b]thiophen-2-yl)picolinamide], for which the IC50 in data set [2] worked out at 13.7 ± 1.6 µM.

Broadly, the IC50 is the midpoint of a concentration-inhibition curve. Read a low IC50 as higher potency. The CC50 is the concentration at which the toxic effect on the cells reaches its halfway point.
